# How the values were obtained:
# [1] = molecular target: T1, Indoleamine 2,3-dioxygenase 1 (Homo sapiens, UniProt P14902); assay: Inhibition of recombinant human IDO1 expressed in Escherichia coli EC538 assessed as reduction in N-formylkynurenine formation using L-tryptophan as substrate incubated for 30 mins by methylene blue reagent based concurrent assay
# [2] = molecular target: T2, Tryptophan 2,3-dioxygenase (Homo sapiens, UniProt P48775); assay: Inhibition of recombinant human TDO2 expressed in Escherichia coli BL21 (DE3) assessed as reduction in N-formylkynurenine formation using L-tryptophan as substrate incubated for 30 mins by methylene blue reagent based concurrent assay
# T2 sequence (P48775 whole entry): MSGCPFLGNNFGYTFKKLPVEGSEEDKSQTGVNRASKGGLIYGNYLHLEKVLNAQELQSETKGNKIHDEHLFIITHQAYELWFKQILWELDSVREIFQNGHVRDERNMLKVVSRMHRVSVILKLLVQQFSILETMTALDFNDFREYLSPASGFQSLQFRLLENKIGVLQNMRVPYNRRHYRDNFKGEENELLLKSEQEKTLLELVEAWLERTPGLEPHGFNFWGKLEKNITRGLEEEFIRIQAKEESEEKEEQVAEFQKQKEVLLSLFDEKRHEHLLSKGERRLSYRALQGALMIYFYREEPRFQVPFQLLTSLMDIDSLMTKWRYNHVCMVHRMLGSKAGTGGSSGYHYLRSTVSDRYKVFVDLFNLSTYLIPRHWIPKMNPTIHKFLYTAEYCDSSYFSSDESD
# [3] = molecular target: T2, Tryptophan 2,3-dioxygenase; assay: Inhibition of recombinant human TDO2 expressed in Escherichia coli BL21 (DE3) assessed as reduction in N-formylkynurenine formation using L-tryptophan as substrate incubated for 30 mins by methylene blue reagent based assay
# [4] = molecular target: T1, Indoleamine 2,3-dioxygenase 1; assay: Inhibition of recombinant human IDO1 expressed in Escherichia coli EC538 assessed as reduction in N-formylkynurenine formation using L-tryptophan as substrate incubated for 30 mins by methylene blue reagent based assay
# [5] = molecular target: Tryptophan 2,3-dioxygenase (Rattus norvegicus, UniProt P21643); assay: Inhibition of TDO2 in rat liver homogenate assessed as reduction in N-formylkynurenine formation using L-tryptophan as substrate incubated for 1 hr; format: tissue-based
# Tryptophan 2,3-dioxygenase (Rattus norvegicus, UniProt P21643), sequence (P21643 whole entry): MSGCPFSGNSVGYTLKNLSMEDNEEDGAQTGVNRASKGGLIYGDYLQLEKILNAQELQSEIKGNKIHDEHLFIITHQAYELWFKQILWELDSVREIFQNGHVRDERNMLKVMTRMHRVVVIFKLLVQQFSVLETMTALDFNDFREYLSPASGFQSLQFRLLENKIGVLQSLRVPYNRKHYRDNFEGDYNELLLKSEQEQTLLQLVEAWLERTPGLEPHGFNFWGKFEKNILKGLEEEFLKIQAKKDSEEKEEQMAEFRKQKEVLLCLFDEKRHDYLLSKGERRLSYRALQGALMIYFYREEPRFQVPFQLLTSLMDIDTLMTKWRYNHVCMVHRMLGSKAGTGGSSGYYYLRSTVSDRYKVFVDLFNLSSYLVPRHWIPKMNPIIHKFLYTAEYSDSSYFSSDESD
# T1 sequence (P14902 whole entry): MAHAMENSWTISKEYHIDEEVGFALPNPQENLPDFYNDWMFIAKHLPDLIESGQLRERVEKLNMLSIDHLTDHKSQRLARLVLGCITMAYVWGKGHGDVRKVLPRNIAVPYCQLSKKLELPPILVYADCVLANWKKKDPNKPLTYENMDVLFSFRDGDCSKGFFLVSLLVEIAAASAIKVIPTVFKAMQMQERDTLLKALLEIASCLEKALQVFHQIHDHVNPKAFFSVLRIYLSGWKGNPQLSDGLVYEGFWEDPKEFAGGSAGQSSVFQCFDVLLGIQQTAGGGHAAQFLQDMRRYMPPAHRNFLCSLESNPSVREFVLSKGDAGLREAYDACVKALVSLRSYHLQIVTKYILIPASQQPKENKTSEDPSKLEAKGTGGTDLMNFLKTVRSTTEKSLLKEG
SMILES,IC50 [1] [µM],IC50 [2] [µM],IC50 [3] [µM],IC50 [4] [µM],IC50 [5] [µM]
O=S(=O)(/N=C/c1c(O)ccc2ccccc12)c1cccs1,1.39,11.3,,,
COCCn1c2nc(=O)n(-c3ccccc3)c(=O)c-2nc2ccccc21,23.8,33.7,,,
Cc1cc(=O)n2c3c(c4c(cc13)c(CN(C)C)cc(=O)n4C)OC2,27,17.6,,,
Oc1ccccc1-c1nc2c3ccccc3c3ccccc3c2[nH]1,11.8,12.3,,,
Nc1nonc1C(=NO)Nc1ccc(F)c(Cl)c1,,3.62,3.47,,
O=[N+]([O-])c1cc([N+](=O)[O-])c2cccnc2c1O,11.1,22.7,,,
Fc1ccc2c(/C=C/c3cccnc3)c[nH]c2c1,478,,,350,0.05
CC1Oc2cc3c(-c4c(O)cc(O)c5c(O)c6c(cc45)OC(C)C(C)C6=O)c(O)cc(O)c3c(O)c2C(=O)C1C (centres undefined),44.1,48.6,,,
O=[N+]([O-])c1cc(F)c2cccnc2c1O,14.6,30.2,,,
O=Cc1ccc(O)c2ncccc12,4.37,> 100,,,
NS(=O)(=O)NCCNc1nonc1C(=NO)Nc1ccc(F)c(Br)c1 [EPACADOSTAT],,3.43,2.12,,
O=[N+]([O-])/C=C/c1cc2ccccc2[nH]1,2.79,> 100,,,
O=C1c2ccccc2C2=C3C(O)=NN=C3CCN12,1.72,4.35,,,
CC1=C(O)C(=O)C=C2C1=CC=C1[C@@]2(C)CC[C@@]2(C)[C@@H]3C[C@](C)(C(=O)O)CC[C@]3(C)CC[C@]12C [CELASTROL],8.41,> 100,,,

# Reference: ChEMBL document CHEMBL4811262, “Parallel discovery of selective and dual inhibitors of tryptophan dioxygenases IDO1 and TDO2 with a newly-modified enzymatic assay” (Bioorg Med Chem, 2021)
